The source of these data is US20060216756A1, “Method for evaluating oxidized protein in horny cell layer” (Shiseido Company Ltd., priority 2003, published 2006).

For assay [1], the system named is horny layer oxidized protein. Put plainly: Increase in horny layer oxidized protein due to aldehyde (tape-stripped horny layer). In kind it is biochemical, human. As to conditions: 1 mM aqueous acrolein, room temperature, 18 hours, abdomen tape horny layer. As to the method:
Transparent adhesive tape was attached to the abdomen of a healthy individual and immediately stripped off, to non-invasively obtain the outer layer of the horny layer. The tape attached to the horny layer was incubated in a 1 mM aqueous acrolein solution at room temperature for 18 hours. After incubation was complete, the mixture was thoroughly washed with phosphate-buffered saline (PBS) and then reacted with a 100 mM MES-Na buffer solution (pH 5.5) containing 20 μM fluorescein-5-thiosemicarbazide (Molecular Probes Co.) at room temperature for 1 hour. After completion of the reaction, thorough washing was carried out with phosphate-buffered saline (PBS) and a fluorescent microscope was used for observation.

In assay [2] the test system is horny layer oxidized protein. Kind of assay: Increase in horny layer oxidized protein due to unsaturated fatty acid coated on forearm. In kind it is in vivo, human. Particulars: 40 μL/cm^2 of 30% linoleic acid-ethanol solution, 3 consecutive days. As to the method: (§1) After coating the forearm of a healthy individual with 40 μL/cm^2 of a 30% linoleic acid-ethanol solution for 3 consecutive days, transparent adhesive tape was attached to the irradiated site and immediately stripped off, to non-invasively obtain the outer layer of the horny layer. The tape attached to the horny layer was reacted with a 100 mM MES-Na buffer solution (pH 5.5) containing 20 μM fluorescein-5-thiosemicarbazide (Molecular Probes Co.) at room temperature for 1 hour. After completion of the reaction, thorough washing was carried out with phosphate-buffered saline (PBS), and then a fluorescent microscope was used for observation.

Assay [3] relates to horny layer oxidized protein. Put plainly: Agent-induced inhibition of sodium hypochlorite-induced increase in horny layer oxidized protein (tape-stripped horny layer, fluorescein-5-thiosemicarbazide labeling). In kind it is biochemical, human. Particulars: abdomen tape horny layer, 0.2 mM sodium hypochlorite plus agent, 37° C. for 18 hours; concentration inhibiting increase to median between hypochlorite alone and water alone; read-out: 50% inhibition concentration. As to the method: Adhesive tape is attached to the skin, such as an unexposed part of the abdomen, of a healthy individual, and immediately stripped off for non-invasive sampling of the outer layer of the horny layer. The tape which was attached to the horny layer is incubated in an aqueous solution containing a mixture of the oxidizing agent and a fixed concentration of the candidate agent. […] The inhibiting effect of the agent on oxidized protein increase may also be evaluated based on the level of oxidized protein in the horny layer specimen obtained after simultaneously applying the oxidizing agent onto human skin.
Transparent adhesive tape was attached to the abdomen of a healthy individual and immediately stripped off, to non-invasively obtain the outer layer of the horny layer. The tape attached to the horny layer was incubated in an aqueous solution comprising a mixture of 0.2 mM sodium hypochlorite and a fixed concentration of the agent, at 37° C. for 18 hours. After incubation was complete, the mixture was thoroughly washed with phosphate-buffered saline (PBS) and then reacted with a 100 mM MES-Na buffer solution (pH 5.5) containing 20 μM fluorescein-5-thiosemicarbazide (Molecular Probes Co.) at room temperature for 1 hour. After completion of the reaction, thorough washing was carried out with phosphate-buffered saline (PBS) and a fluorescent microscope was used for observation.

In assay [4] the test system is horny layer oxidized protein. Put plainly: Increase in horny layer oxidized protein due to sodium hypochlorite and unsaturated fatty acids (tape-stripped horny layer). Type of assay: biochemical, human. Particulars: 0.2 mM aqueous sodium hypochlorite, 37° C., 18 hours, abdomen tape horny layer. As to the method:
Transparent adhesive tape was attached to the abdomen of a healthy individual and immediately stripped off, to non-invasively obtain the outer layer of the horny layer. The tape attached to the horny layer was coated with 200 μg/cm^2 of unsaturated fatty acids (linoleic acid, oleic acid and palmitoleic acid), and then incubated in a 0.2 mM aqueous sodium hypochlorite solution at 37° C. for 18 hours. After incubation was complete, the mixture was thoroughly washed with phosphate-buffered saline (PBS) and then reacted with a 100 mM MES-Na buffer solution (pH 5.5) containing 20 μM fluorescein-5-thiosemicarbazide (Molecular Probes Co.) at room temperature for 1 hour. After completion of the reaction, thorough washing was carried out with phosphate-buffered saline (PBS) and a fluorescent microscope was used for observation.

The test system of assay [5] is horny layer oxidized protein. Kind of assay: Increase in horny layer oxidized protein due to sodium hypochlorite coated on forearm. Particulars: 2 μL/cm^2 of 20 mM aqueous solution, 5 consecutive days. Type of assay: in vivo, human. The protocol:
as §1, with “2” for “40”, “20 mM aqueous sodium hypochlorite” for “30% linoleic acid-ethanol”, “5” for “3”, “attached” for “attached to the irradiated site”

For `C=CC=O` [acrolein], in assay [1], the “change in oxidized protein after incubation with acrolein” value is reported as “increase in oxidized protein”.

As to `CCCCC/C=C\C/C=C\CCCCCCCC(=O)O` [linoleic acid], the “change in oxidized protein after coating skin with linoleic acid” value in assay [2] is “increase in oxidized protein”.

As for `O=S(O)S(=O)(=O)O` [Sodium pyrosulfite], the IC50 in assay [3] is below 125 µM.

Take `N[C@@H](CCC(=O)N[C@@H](CS)C(=O)NCC(=O)O)C(=O)O` [Glutathione]: in assay [3], the IC50 worked out at 8 µM.

Regarding `OCl` [sodium hypochlorite], in assay [4], the “change in oxidized protein after incubation with sodium hypochlorite, compared to incubation with water” value is “increase in oxidized protein”. Also, the “change in oxidized protein after coating skin with sodium hypochlorite” value in assay [5] is listed as “increase in oxidized protein”.

In the case of `NCCS(=O)(O)=S` [2-Aminoethanethiosulfonic acid], in assay [3], the IC50 turned out to be 63 µM.

Take `NCCS(=O)O` [2-Aminoethanesulfinic acid]: the IC50 in assay [3] stood at 86 µM.

In the case of `Cc1c(C)c2c(c(C)c1OP(=O)(O)OC1=C(O)C(C(O)CO)OC1=O)CCC(C)(CCCC(C)CCCC(C)CCCC(C)C)O2` [Potassium α-tocopherol-2-L-ascorbate phosphate diester], the IC50 in assay [3] is below 125 µM.

For the compound `Cc1c(C)c2c(c(C)c1O)CC[C@@](C)(CCC[C@H](C)CCC[C@H](C)CCCC(C)C)O2` [α-Tocopherol], the IC50 in assay [3] came out at 220 µM.

On to `CCOC1=C(O)C(=O)O[C@@H]1[C@@H](O)CO` [3-O-Ethylascorbic acid], for which the IC50 in assay [3] was found to be 140 µM.

Take `O=C1O[C@H]([C@@H](O)CO)C(O)=C1O` [Ascorbic acid]: the IC50 in assay [3] worked out at 210 µM.

For the compound `O=C1O[C@H]([C@@H](O)CO)C(O)=C1O[C@H]1O[C@H](CO)[C@@H](O)[C@H](O)[C@H]1O` [2-O-α-D-Glucopyranosyl-L-ascorbic acid], in assay [3], the IC50 was determined as 190 µM.

On to `O=C1O[C@H]([C@@H](O)CO)C(O)=C1OP(=O)(O)O` [Magnesium ascorbate phosphate ester], for which the IC50 in assay [3] was below 125 µM.
